Measurements from US20250312349A1, “COMPOSITION AND METHODS OF TREATING INTRACELLULAR PATHOGEN INFECTION” (UNIVERSITY HOSPITALS CLEVELAND MEDICAL CENTER, priority 2024, published 2025).

Key:
T. gondii [1] = assay: In vitro infection of mammalian cells with T. gondii tachyzoites, counted by light microscopy; format: cell-based, Toxoplasma gondii
Protocol: Chinese Hamster Ovary (CHO; a gift from Cathleen Carlin, Case Western Reserve University), human retinal pigment epithelial (RPE) cells (ARPE-19; American Type Culture Collection, ATCC, Manassas, VA), and mouse endothelial […]) transduced with Src shRNA or control encoding lentiviral vectors were cultured in complete media. Mouse brain endothelial cells expressing WT or DN EGFR were isolated as described. Endothelial cells were cultured in medium containing Endothelial Cell Growth Supplement (ECGS; Sigma-Aldrich, St Louis, MO). Mammalian cells were infected with tachyzoites of the RH or PTG stains of T. gondii; RH strain was used unless otherwise indicated. Cells were fixed at 2 hours or 24 hours followed by staining using Hema 3 Manual Staining System (Fisherbrand, Hampton, NH). At least 100 to 200 cells per monolayer were counted by examining a minimum of 5 random areas per monolayer. The percentage of infected cells, tachyzoites and vacuoles per 100 cells, and tachyzoites per vacuole were counted using light microscopy. Three independent experiments were performed. Saracatinib, Gefitinib (LC Laboratories, Woburn, MA) and lysosomal inhibitors leupeptin and pepstatin (10 μM; Millipore Sigma, Burlington, MA) were used in specified experiments. Each cell monolayer was generated and infected independently.

CHO cells = assay: MTT assay of potential cell toxicity, CHO cells; format: cell-based, Chinese Hamster; settings: 1 μM, 24 hrs
Protocol: FIG. 9 illustrates graphs showing the assessment of potential cell toxicity of Saracatinib. CHO cells and retinal pigment epithelial cells (RPE) were treated with various concentrations of Saracatinib (1 nM-1000 μM) followed by MTT assay 24 hrs. after incubation with Saracatinib. The data are pooled from duplicate or triplicate independent samples obtained in 3 different experiments. […] Data are shown as mean±SEM. Significance was determined by comparing all groups to the control using one-way ANOVA with Holm-Sidak multiple comparison test (*p<0.05). (PDF)

[2] = tested on: retinal pigment epithelial cells (RPE); assay: MTT assay of potential cell toxicity, RPE cells; format: cell-based, human; settings: 1 μM, 24 hrs
Protocol: Data are shown as mean±SEM. […] Three independent experiments were performed.

T. gondii [3] = assay: In-out assay of parasite invasion of host cells (SAG1 staining); format: cell-based, Toxoplasma gondii; settings: CHO cells, 1 μM, RH-RFP T. gondii, 2 hours
Protocol: (A) CHO cells were treated with Saracatinib (1 μM) and infected with RH-RFP T. gondii for 2 hours. Cells were fixed with Paraformaldehyde (PFA) and were not permeabilized prior to staining with a tachyzoite marker, SAG1. […] will express red fluorescence while extracellular parasites stain for SAG1 and appear green or yellow in color. Data are shown as mean±SEM. The graphs show data from 7 independent monolayers pooled from 2 different experiments. (B) CHO cells were treated with Saracatinib (1 μM) and infected with RH-RFP T. gondii for 24 hours. Number of tachyzoites per vacuole were determined by light microscopy and quantified as percentage of total vacuoles. Data are shown as mean±SEM. The graphs show data from 6 independent monolayers pooled from 3 different experiments. […] (PDF)
Mammalian cells were infected with RFP-T. gondii (RH) and fixed with 4% paraformaldehyde. Cells were stained with antibodies against LC3 (MBL International, Woburn, MA), LAMP1 (DSHB, Iowa City, IA), or GRA7 (gift from John Boothroyd, Stanford University, Stanford, CA) followed by a fluorescently conjugated secondary antibodies (Jackson ImmunoResearch Laboratories, West Grove, PA). LC3 and LAMP1 were evaluated for accumulation at 5- and 7 hours post-infection, respectively. […] Parasites were evaluated blindly in multiple random fields of view and 100 parasites were examined per group. […]

PI3K = assay: Immunoblot of phospho-Y199 PI3K in T. gondii-infected CHO cells; format: cell-based, Chinese Hamster; settings: lysates at 2 h
Protocol: (§1) Membranes were probed with antibodies against Src, phospho-Y416 Src, Akt, phospho-S473 Akt, PTEN, phospho-[…] PTEN, PI3K, phospho-Y458/Y199 PI3K, ULK1, EGFR, HA tag (all from Cell Signaling, Danvers, MA), phospho-Y240 PTEN (Sigma) and Actin (Santa Cruz Biotechnologies) followed by incubation with secondary antibodies (Cell Signaling and Santa Cruz Biotechnologies). Three independent experiments were performed.

PTEN = assay: Immunoblot of PTEN phosphorylation in T. gondii-infected CHO cells; format: cell-based, Chinese Hamster; settings: lysates at 2 h
Protocol: as §1

ME49 T. gondii = assay: Pre-established ocular and cerebral toxoplasmosis in B6 mice, 4 weeks of treatment; format: in vivo, C57BL/6 mice; settings: four weeks
Excerpt: Brains and eyes were fixed in 10% formalin before paraffin embedding. Hematoxylin & eosin (H&E) and periodic acid Schiff hematoxylin (P.A.S.H) were used to stain sections from eyes and brains respectively. Brain and ocular histopathology were scored as described previously.

[4] = tested on: phospho-S473 Akt and PTEN around tachyzoites; assay: Immunofluorescence of brain sections from infected mice treated for four days; format: in vivo, C57BL/6 mice; settings: 10 mg kg^-1 twice daily for 4 days
Excerpt: Scale bar, 50 m. […] Scale bar, 50 m. […] (G). […] Results are representative of 2 independent experiments. […] Scale bar, 10 m.
C57BL/6 mice (Jackson Laboratories, Bar Harbor, ME) or Becn 1^+/− (C57BL/6 background; gift from Beth Levine, University of Texas Southwestern, Dallas, TX) were bred at the Animal Resource Center at Case Western Reserve University. Female mice between the ages of 6 to 8 weeks old were infected with 10 cysts of the ME49 T. gondii for four weeks. In certain experiments, mice were euthanized at 4 weeks to evaluate severity of ocular and cerebral toxoplasmosis.

[5] = Brain penetration and tolerability of Saracatinib; format: in vivo; settings: mice, 10 or 15 mg kg^-1 twice per day
[6] = CHO cells transfected with CA Akt, 1 μM, 24 h
[7] = CHO cells transfected with WT Akt, 1 μM, 24 h
[8] = EGFR+ CHO cells, RH T. gondii, indicated concentrations, 24 h
[9] = 10 or 15 mg kg^-1 oral gavage twice per day

For `CN1CCN(CCOc2cc(OC3CCOCC3)c3c(Nc4c(Cl)ccc5c4OCO5)ncnc3c2)CC1` [Saracatinib, N-(5-chloro-1,3-benzodioxol-4-yl)-7-(2-(4-methylpiperazin-1-yl)ethoxy)-5-(tetrahydro-2H-pyran-4-yloxy)quinazolin-4-amine], the toxoplasmacidal activity (T. gondii [1]; 0.3 μM) was “significantly reduced”, the toxoplasmacidal activity (T. gondii [1]; 1 μM, infected host cells) was “kills T. gondii” and the toxoplasmacidal activity (T. gondii [1]; CHO cells infected with type I (RH) or Type II (PTG) strains, 1 μM, 2 h and 24 h) was “toxoplasmacidal activity”. The “effects on infected cells and tachyzoites per 100 cells compared with Gefitinib” value (T. gondii [1]; CHO cells stably transfected to express EGFR, 24 h) was “more striking than the effects of Gefitinib”, the “number of tachyzoites per 100 cells” value (T. gondii [1]; [6]) was “no reduction” and the percentage of infection (T. gondii [1]; [6]) was “no reduction”. For the same compound, the “number of tachyzoites per 100 cells” value (T. gondii [1]; [7]) was “reduced”, the “percentage of infected cells” value (T. gondii [1]; [7]) was “reduced” and the “parasite replication (tachyzoites per vacuole)” value (T. gondii [1]; CHO cells, 1 μM, 24 hours) was “did not affect”. For the same compound, the “killing of T. gondii in cells made deficient in PTEN” value (T. gondii [1]; CHO cells, PTEN siRNA, 24 h) was “no longer able to kill T. gondii”, the “percentage of infected cells” value (T. gondii [1]; [8]) was “dose-dependent significant decrease” and the “tachyzoites per 100 cells” value (T. gondii [1]; [8]) was “dose-dependent significant decrease”. For the same compound, the “anti-T. gondii activity in ULK1-deficient cells” value (T. gondii [1]; ULK1 siRNA, CHO and brain endothelial cells, 24 h) was “unable to exhibit anti-T. gondii activity”, the “anti-T. gondii activity in presence of Leupeptin and Pepstatin A” value (T. gondii [1]; lysosomal inhibitors 10 μM added post-infection) was “ablated” and the “toxoplasmacidal activity in cells made deficient in Src” value (T. gondii [1]; mHEVc cells transduced with Src shRNA, 1 μM) was “no toxoplasmacidal activity was detected”. The “cell toxicity (MTT)” value (CHO cells) was “non-toxic”, the “cell toxicity (MTT)” value [2] was “non-toxic” and the “parasite invasion of host cells” value (T. gondii [3]) was “did not affect”. The “Y199 phosphorylation of PI3K” value (PI3K) was “inhibited”, the “PTEN phosphorylation at Tyr240, Ser380 and Thr382/383” value (PTEN) was “reduced” and the “mice with no significant ocular inflammation” value (ME49 T. gondii; 15 mg kg^-1 twice per day) was 75%. The “perivascular and diffuse inflammation in the brains” value (ME49 T. gondii; 15 mg kg^-1 twice per day) was “No significant perivascular and diffuse inflammation were detected”, the “histopathology in eye and brain” value (ME49 T. gondii; [9]) was “marked reduction” and the “parasite load in the eye and brain” value (ME49 T. gondii; [9]) was “profound reduction”. For the same compound, the “phospho-S473 Akt accumulation around tachyzoites” value [4] was “markedly reduced”, the “recruitment of PTEN around tachyzoites” value [4] was “induced recruitment” and the predicted brain concentrations [5] was ~0.2 µM.
